Reference: US20130157954A1, “METHODS FOR TREATMENT OR PROPHYLAXIS OF KIDNEY OR LIVER DYSFUNCTION” (NPS PHARMACEUTICALS, INC., priority 2010, published 2013)

Assay: Example 1: liver biomarkers (total bilirubin, ALT, AST, ALP) in short bowel syndrome patients, every four weeks for 24 weeks; also sorted by >5% change from baseline
Type: in vivo, Human
Design: AST (SGOT) Change from Baseline Median / ALT (SGPT) Median / TOTAL BILIRUBIN Median / TOTAL BILIRUBIN Change from Baseline Median / ALT (SGPT) Change from Baseline Median / AST (SGOT) Median: unit not given here
Conditions: 0.05 mg/kg/day
Protocol: Human patients with short bowel syndrome were divided into three groups: a control group (16 total individuals) to receive placebo, an experimental group (35 total individuals) to receive teduglutide at 0.05 mg/kg/day throughout the study, and an experimental group (32 total individuals) to receive teduglutide at 0.1 mg/kg/day throughout the study. Patients were treated by subcutaneous injection of placebo or the appropriate dose of teduglutide. As individuals with short bowel syndrome are likely to experience associated liver and kidney disease, known biomarkers of liver and kidney function were monitored every four weeks, for 24 weeks. The liver biomarkers tested included total bilirubin, ALT and AST and ALP. The kidney biomarkers tested included urea nitrogen, creatinine and GFR. Before administration of placebo or teduglutide, diagnostic biomarker levels were tested to establish a baseline for each individual.
To visualize the effect of GLP-2 on the levels of the diagnostic biomarkers, the average change from baseline was calculated for the placebo and teduglutide treated groups for each visit after a baseline was established. The average change from baseline of each group is depicted in FIGS. 1-7. The numerical figures for each diagnostic biomarker at each time point are depicted in Table 1.
The efficacy of teduglutide in treating liver dysfunction was further tested by sorting the data into two groups: individuals with abnormal baseline values of liver diagnostic biomarkers; and individuals with normal baseline values of liver diagnostic biomarkers. The mean diagnostic biomarker change from baseline for these two groups is shown for ALT (FIGS. 5 and 6) and AST (FIGS. 7 and 8). […] These changes were significant when compared to baseline levels for the group, and when compared to placebo (see FIGS. 5 and 7).
The raw data for this sorting is reproduced in Table 2 below.

CC[C@H](C)[C@H](NC(=O)[C@H](Cc1ccccc1)NC(=O)[C@H](CC(=O)O)NC(=O)[C@H](CCCNC(=N)N)NC(=O)[C@H](C)NC(=O)[C@H](C)NC(=O)[C@H](CC(C)C)NC(=O)[C@H](CC(N)=O)NC(=O)[C@H](CC(=O)O)NC(=O)[C@H](CC(C)C)NC(=O)[C@@H](NC(=O)[C@@H](NC(=O)[C@H](CC(N)=O)NC(=O)[C@H](CCSC)NC(=O)[C@H](CCC(=O)O)NC(=O)[C@H](CC(=O)O)NC(=O)[C@H](CO)NC(=O)[C@H](Cc1ccccc1)NC(=O)[C@H](CO)NC(=O)CNC(=O)[C@H](CC(=O)O)NC(=O)CNC(=O)[C@@H](N)Cc1c[nH]cn1)[C@@H](C)O)[C@@H](C)CC)C(=O)N[C@@H](CC(N)=O)C(=O)N[C@@H](Cc1c[nH]c2ccccc12)C(=O)N[C@@H](CC(C)C)C(=O)N[C@H](C(=O)N[C@@H](CCC(N)=O)C(=O)N[C@H](C(=O)N[C@@H](CCCCN)C(=O)N[C@H](C(=O)N[C@H](C(=O)N[C@@H](CC(=O)O)C(=O)O)[C@@H](C)O)[C@@H](C)CC)[C@@H](C)O)[C@@H](C)CC [teduglutide]
ALKALINE PHOSPHATASE Change from Baseline Median (DW4): −16.0
ALT (SGPT) Change from Baseline Median (DW4): −5.0
ALT (SGPT) Median (DW4): 27.0
AST (SGOT) Change from Baseline Median (DW4): −4.0
AST (SGOT) Median (DW4): 27.0
TOTAL BILIRUBIN Change from Baseline Median (DW4): 0.0
TOTAL BILIRUBIN Median (DW4): 7.0
ALKALINE PHOSPHATASE Change from Baseline Median (DW8): −20.0
ALT (SGPT) Change from Baseline Median (DW8): −4.0
AST (SGOT) Change from Baseline Median (DW8): −3.0
AST (SGOT) Median (DW8): 28.0
TOTAL BILIRUBIN Change from Baseline Median (DW8): −1.0
TOTAL BILIRUBIN Median (DW8): 8.0
ALKALINE PHOSPHATASE Change from Baseline Median (DW12): −24.0
ALT (SGPT) Change from Baseline Median (DW12): −10.0
ALT (SGPT) Median (DW12): 26.0
AST (SGOT) Change from Baseline Median (DW12): −8.0
TOTAL BILIRUBIN Change from Baseline Median (DW12): −1.0
TOTAL BILIRUBIN Median (DW12): 7.0
ALT (SGPT) Change from Baseline Median (DW16): −2.5
ALT (SGPT) Median (DW16): 28.0
AST (SGOT) Change from Baseline Median (DW16): −1.5
AST (SGOT) Median (DW16): 25.0
TOTAL BILIRUBIN Change from Baseline Median (DW16): −1.0
TOTAL BILIRUBIN Median (DW16): 7.0
ALKALINE PHOSPHATASE Change from Baseline Median (DW20): −25.0
ALT (SGPT) Change from Baseline Median (DW20): −5.0
ALT (SGPT) Median (DW20): 26.0
AST (SGOT) Change from Baseline Median (DW20): −4.0
AST (SGOT) Median (DW20): 25.0
TOTAL BILIRUBIN Change from Baseline Median (DW20): 0.0
TOTAL BILIRUBIN Median (DW20): 9.0
ALKALINE PHOSPHATASE Change from Baseline Median (DW 24): −29.0
ALT (SGPT) Change from Baseline Median (DW 24): −5.0
ALT (SGPT) Median (DW 24): 20.0
AST (SGOT) Change from Baseline Median (DW 24): −4.5
AST (SGOT) Median (DW 24): 25.0
TOTAL BILIRUBIN Change from Baseline Median (DW 24): 0.0
TOTAL BILIRUBIN Median (DW 24): 8.0
ALKALINE PHOSPHATASE change from baseline <−5%, number of patients (week 4): 21
ALKALINE PHOSPHATASE change from baseline <−5%, percent of patients (week 4): (60.0%)
ALKALINE PHOSPHATASE change from baseline >5%, number of patients (week 4): 3
ALKALINE PHOSPHATASE change from baseline >5%, percent of patients (week 4): (8.6%)
ALKALINE PHOSPHATASE change from baseline −5% <= and <=5%, number of patients (week 4): 6
ALKALINE PHOSPHATASE change from baseline −5% <= and <=5%, percent of patients (week 4): (17.1%)
ALT (SGPT) change from baseline <−5%, number of patients (week 4): 22
ALT (SGPT) change from baseline <−5%, percent of patients (week 4): (62.9%)
ALT (SGPT) change from baseline >5%, number of patients (week 4): 8
ALT (SGPT) change from baseline >5%, percent of patients (week 4): (22.9%)
ALT (SGPT) change from baseline −5% <= and <=5%, number of patients (week 4): 0
ALT (SGPT) change from baseline −5% <= and <=5%, percent of patients (week 4): (0.0%)
AST (SGOT) change from baseline <−5%, number of patients (week 4): 21
AST (SGOT) change from baseline <−5%, percent of patients (week 4): (60.0%)
AST (SGOT) change from baseline >5%, number of patients (week 4): 5
AST (SGOT) change from baseline >5%, percent of patients (week 4): (14.3%)
AST (SGOT) change from baseline −5% <= and <=5%, number of patients (week 4): 2
AST (SGOT) change from baseline −5% <= and <=5%, percent of patients (week 4): (5.7%)
TOTAL BILIRUBIN change from baseline <−5%, number of patients (week 4): 12
TOTAL BILIRUBIN change from baseline <−5%, percent of patients (week 4): (34.3%)
TOTAL BILIRUBIN change from baseline >5%, number of patients (week 4): 8
TOTAL BILIRUBIN change from baseline >5%, percent of patients (week 4): (22.9%)
TOTAL BILIRUBIN change from baseline −5% <= and <=5%, number of patients (week 4): 6
TOTAL BILIRUBIN change from baseline −5% <= and <=5%, percent of patients (week 4): (17.1%)
ALKALINE PHOSPHATASE change from baseline <−5%, number of patients (week 8): 21
ALKALINE PHOSPHATASE change from baseline <−5%, percent of patients (week 8): (60.0%)
ALKALINE PHOSPHATASE change from baseline >5%, number of patients (week 8): 6
ALKALINE PHOSPHATASE change from baseline >5%, percent of patients (week 8): (17.1%)
ALKALINE PHOSPHATASE change from baseline −5% <= and <=5%, number of patients (week 8): 2
ALKALINE PHOSPHATASE change from baseline −5% <= and <=5%, percent of patients (week 8): (5.7%)
ALT (SGPT) change from baseline <−5%, number of patients (week 8): 16
ALT (SGPT) change from baseline <−5%, percent of patients (week 8): (45.7%)
ALT (SGPT) change from baseline >5%, number of patients (week 8): 9
ALT (SGPT) change from baseline >5%, percent of patients (week 8): (25.7%)
ALT (SGPT) change from baseline −5% <= and <=5%, number of patients (week 8): 4
ALT (SGPT) change from baseline −5% <= and <=5%, percent of patients (week 8): (11.4%)
AST (SGOT) change from baseline <−5%, number of patients (week 8): 16
AST (SGOT) change from baseline <−5%, percent of patients (week 8): (45.7%)
AST (SGOT) change from baseline >5%, number of patients (week 8): 9
AST (SGOT) change from baseline >5%, percent of patients (week 8): (25.7%)
AST (SGOT) change from baseline −5% <= and <=5%, number of patients (week 8): 4
AST (SGOT) change from baseline −5% <= and <=5%, percent of patients (week 8): (11.4%)
TOTAL BILIRUBIN change from baseline <−5%, number of patients (week 8): 13
TOTAL BILIRUBIN change from baseline <−5%, percent of patients (week 8): (37.1%)
TOTAL BILIRUBIN change from baseline >5%, number of patients (week 8): 8
TOTAL BILIRUBIN change from baseline >5%, percent of patients (week 8): (22.9%)
TOTAL BILIRUBIN change from baseline −5% <= and <=5%, number of patients (week 8): 4
TOTAL BILIRUBIN change from baseline −5% <= and <=5%, percent of patients (week 8): (11.4%)
ALKALINE PHOSPHATASE change from baseline <−5%, number of patients (week 12): 23
ALKALINE PHOSPHATASE change from baseline <−5%, percent of patients (week 12): (65.7%)
ALKALINE PHOSPHATASE change from baseline >5%, number of patients (week 12): 2
ALKALINE PHOSPHATASE change from baseline >5%, percent of patients (week 12): (5.7%)
ALKALINE PHOSPHATASE change from baseline −5% <= and <=5%, number of patients (week 12): 2
